This data set is described as follows: Cyclic voltammetry (CV) in MeCN electrolyte solution. The format is physicochemical. Particulars: for range over which the redox couples are observed (estimation of the Vcell): symmetric battery configuration assumed. How it is done:
Cyclic voltammetry (CV) measurements were used to determine the E1/2 values for 2-OTf and 3-OTf, and those measurements were performed in 0.1 Bu4NBF4 MeCN solution. Five redox couples, corresponding to 8 electron transfer (ET) events were observed over the potential range for 2-OTf and 3-OTf, respectively (FIGS. 3A and 3B). The electrochemistry of 2 is expected to be the same as 2-OTF, although 2-OTf has different solubility. The range of about 1.8 V over which the redox couples are observed provides an estimation of the Vcell for a battery which could be constructed using 2^+ as the analyte, if the battery is constructed with a symmetric configuration where 2 is the analyte for both the cathode and anode.
Cyclic voltammograms (CVs) were recorded in a nitrogen-filled glovebox with a CH Instruments Electrochemical Analyzer Model 620D or 1400 with a glassy carbon working electrode (CH Instruments, nominal surface area of 0.071 cm^2), a platinum wire auxiliary electrode, and an Ag/AgNO3 (0.001M) non-aqueous reference electrode with a Vycor tip. All potentials are referenced to the SCE couple, and ferrocene was used as an external standard where the E1/2 of ferrocene/ferrocenium is +0.40 V vs. SCE in 0.1 M Bu4NPF6 MeCN. Bu4NPF6 was recrystallized from ethanol and placed under vacuum for 72 hours before electrolyte solutions were made. Electrolyte solutions were stored over 3 Å molecular sieves for at least 48 hours before use. Sieves were activated by heating under vacuum at 270° C. for at least 72 hours. UV-Vis spectra were obtained using a 1 cm cuvette using an Agilent 8453 UV-vis spectrophotometer.

The mark [1] stands for this setting: 0.1 Bu4NBF4 MeCN solution, glassy carbon working electrode.

Consider two substances from patent US12258358B1, “Ferrocene-substituted organometallic complexes” (THE REGENTS OF THE UNIVERSITY OF CALIFORNIA, priority 2023, dated 2025).

On to [(FcI2P^−)2Al)]OTf [Complex 2-OTf], for which the “range over which the redox couples are observed (estimation of the Vcell)” value is given as “about 1.8 V”. The “electron transfer (ET) events observed over the potential range (five redox couples)” value (0.1 Bu4NBF4 MeCN solution) was 8.
Consider “[(^EtOFcI2P^−)2Al)](OTf) [Complex 3-OTf]”, for which the “range over which the redox couples are observed (estimation of the Vcell)” value is reported as 1.9 V. Moreover, the “electron transfer (ET) events observed over the potential range (five redox couples)” value (0.1 Bu4NBF4 MeCN solution) amounted to 8. Under setting [1], the “E1/2 of the 3^0/− couple” value is −1.02 V vs SCE, the “E1/2 of the 3^2+/+ couple” value was “+0.00 V vs SCE”, the “E1/2 of the 3^6+/2+ four-electron couple” value is listed as “+0.60 V vs SCE” and the “E1/2 of the 3^+/0 couple” value is listed as −0.33 V vs SCE. Further, the “E1/2 of the 3^−/2− couple” value under setting [1] is reported as −1.39 V vs SCE.
